Data published in patent US20050186658A1, “Chimeric metabotropic glutamate receptors and uses thereof” (NPS Pharmaceuticals, Inc., priority 2003, published 2005).

Assays:
pmGluR1/CaR chimera = pmGluR1/CaR chimera (Rattus norvegicus, UniProt P23385); settings: Xenopus oocytes; compared with rat mGluR1; FIG. 9
rat mGluR1 = rat mGluR1 (Rattus norvegicus, UniProt P23385); settings: Xenopus oocytes; FIG. 9 and FIG. 10A
CaSPhmGluR2(27-19) = biological target: T1, CaSPhmGluR2(27-19) (Homo sapiens, UniProt Q14416); test: oocyte assay for Gαi-coupled receptors (GIRK1/GIRK4 co-injection, voltage clamp); format: cell-based; settings: 100 uM L-glutamate; Xenopus oocytes; FIG. 6
T1 construct: CaR signal peptide (first 27 amino acids of CaR) (N); expressed in transfected cells; host or cells: Xenopus laevis oocytes injected with RNA (with GIRK1 and GIRK4 RNA)
T1 sequence (Q14416 with tags, fused parts or gaps): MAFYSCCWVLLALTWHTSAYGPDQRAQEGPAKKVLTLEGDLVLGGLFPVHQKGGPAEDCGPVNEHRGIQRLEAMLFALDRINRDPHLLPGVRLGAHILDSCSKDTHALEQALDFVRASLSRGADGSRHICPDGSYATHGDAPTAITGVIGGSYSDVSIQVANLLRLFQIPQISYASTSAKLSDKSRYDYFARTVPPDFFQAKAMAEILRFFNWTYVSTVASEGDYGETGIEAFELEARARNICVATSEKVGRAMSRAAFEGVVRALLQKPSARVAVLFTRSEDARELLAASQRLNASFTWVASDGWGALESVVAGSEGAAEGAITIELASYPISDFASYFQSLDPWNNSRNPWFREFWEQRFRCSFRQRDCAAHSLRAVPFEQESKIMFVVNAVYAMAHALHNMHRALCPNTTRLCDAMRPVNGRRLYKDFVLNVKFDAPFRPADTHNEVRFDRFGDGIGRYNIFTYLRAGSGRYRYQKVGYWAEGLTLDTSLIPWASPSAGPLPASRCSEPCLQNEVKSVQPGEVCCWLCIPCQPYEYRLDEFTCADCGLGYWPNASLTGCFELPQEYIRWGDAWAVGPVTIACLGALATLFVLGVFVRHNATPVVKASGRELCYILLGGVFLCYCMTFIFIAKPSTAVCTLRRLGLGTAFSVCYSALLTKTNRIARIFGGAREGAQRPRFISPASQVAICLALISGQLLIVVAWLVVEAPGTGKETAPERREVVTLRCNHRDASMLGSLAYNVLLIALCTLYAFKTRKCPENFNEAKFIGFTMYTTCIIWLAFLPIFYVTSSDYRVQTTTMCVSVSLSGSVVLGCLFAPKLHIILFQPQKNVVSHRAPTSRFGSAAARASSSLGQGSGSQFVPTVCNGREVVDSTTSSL

CaSPhmGluR5(27-22) = biological target: T2, CaSPhmGluR5(27-22) (Homo sapiens, UniProt P41594); test: oocyte assay for PLC-coupled receptors (voltage clamp, Cl- current); format: cell-based; settings: 100 uM L-glutamate; Xenopus oocytes; FIG. 8
T2 construct: CaR signal peptide (first 27 amino acids of CaR) (N); expressed in transfected cells; host or cells: Xenopus laevis oocytes injected with in vitro transcribed RNA
T2 sequence (P41594 with tags, fused parts or gaps): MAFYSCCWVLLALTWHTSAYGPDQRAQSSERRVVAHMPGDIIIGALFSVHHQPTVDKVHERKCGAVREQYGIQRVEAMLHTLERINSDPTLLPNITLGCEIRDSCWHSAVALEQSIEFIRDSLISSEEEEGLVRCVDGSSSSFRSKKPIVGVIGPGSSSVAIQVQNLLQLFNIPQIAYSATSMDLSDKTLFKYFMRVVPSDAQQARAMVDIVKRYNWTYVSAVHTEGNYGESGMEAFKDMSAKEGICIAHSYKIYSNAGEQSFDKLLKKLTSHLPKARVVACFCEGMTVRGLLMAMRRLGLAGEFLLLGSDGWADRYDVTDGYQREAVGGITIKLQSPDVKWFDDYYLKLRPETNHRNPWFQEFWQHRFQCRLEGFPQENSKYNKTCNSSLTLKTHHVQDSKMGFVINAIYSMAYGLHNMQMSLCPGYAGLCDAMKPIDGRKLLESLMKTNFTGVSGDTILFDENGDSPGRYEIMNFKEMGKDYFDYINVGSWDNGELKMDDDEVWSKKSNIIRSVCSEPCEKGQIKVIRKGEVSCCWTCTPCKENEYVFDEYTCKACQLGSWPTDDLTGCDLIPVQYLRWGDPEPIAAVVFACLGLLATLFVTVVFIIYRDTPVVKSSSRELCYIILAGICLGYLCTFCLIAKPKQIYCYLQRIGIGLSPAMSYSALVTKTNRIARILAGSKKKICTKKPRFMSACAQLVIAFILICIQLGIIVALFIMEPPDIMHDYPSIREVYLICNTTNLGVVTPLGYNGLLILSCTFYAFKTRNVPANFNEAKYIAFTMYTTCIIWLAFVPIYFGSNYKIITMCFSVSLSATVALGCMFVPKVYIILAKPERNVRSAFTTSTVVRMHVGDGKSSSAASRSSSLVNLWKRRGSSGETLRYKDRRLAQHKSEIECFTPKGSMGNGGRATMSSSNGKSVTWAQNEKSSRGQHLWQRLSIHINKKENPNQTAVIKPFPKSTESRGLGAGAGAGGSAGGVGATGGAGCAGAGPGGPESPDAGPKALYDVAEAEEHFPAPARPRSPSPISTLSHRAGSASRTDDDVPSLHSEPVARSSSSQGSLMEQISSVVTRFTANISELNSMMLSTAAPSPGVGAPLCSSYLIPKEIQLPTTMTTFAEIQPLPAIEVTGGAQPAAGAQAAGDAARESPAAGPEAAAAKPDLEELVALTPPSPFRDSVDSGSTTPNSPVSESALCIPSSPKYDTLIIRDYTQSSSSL

CaSPhmGluR7(27-45) = biological target: T3, CaSPhmGluR7(27-45) (Homo sapiens, UniProt Q14831); test: oocyte assay for Gαi-coupled receptors (GIRK1/GIRK4 co-injection, voltage clamp); format: cell-based; settings: 100 uM L-glutamate; Xenopus oocytes; FIG. 4
T3 construct: human CaR signal peptide (first 27 amino acids of CaR), replacing mGluR7 residues 1-44 (N); expressed in transfected cells; host or cells: Xenopus laevis oocytes injected with in vitro transcribed RNA (co-injected with GIRK1 and GIRK4 RNA)
T3 sequence (Q14831 with tags, fused parts or gaps): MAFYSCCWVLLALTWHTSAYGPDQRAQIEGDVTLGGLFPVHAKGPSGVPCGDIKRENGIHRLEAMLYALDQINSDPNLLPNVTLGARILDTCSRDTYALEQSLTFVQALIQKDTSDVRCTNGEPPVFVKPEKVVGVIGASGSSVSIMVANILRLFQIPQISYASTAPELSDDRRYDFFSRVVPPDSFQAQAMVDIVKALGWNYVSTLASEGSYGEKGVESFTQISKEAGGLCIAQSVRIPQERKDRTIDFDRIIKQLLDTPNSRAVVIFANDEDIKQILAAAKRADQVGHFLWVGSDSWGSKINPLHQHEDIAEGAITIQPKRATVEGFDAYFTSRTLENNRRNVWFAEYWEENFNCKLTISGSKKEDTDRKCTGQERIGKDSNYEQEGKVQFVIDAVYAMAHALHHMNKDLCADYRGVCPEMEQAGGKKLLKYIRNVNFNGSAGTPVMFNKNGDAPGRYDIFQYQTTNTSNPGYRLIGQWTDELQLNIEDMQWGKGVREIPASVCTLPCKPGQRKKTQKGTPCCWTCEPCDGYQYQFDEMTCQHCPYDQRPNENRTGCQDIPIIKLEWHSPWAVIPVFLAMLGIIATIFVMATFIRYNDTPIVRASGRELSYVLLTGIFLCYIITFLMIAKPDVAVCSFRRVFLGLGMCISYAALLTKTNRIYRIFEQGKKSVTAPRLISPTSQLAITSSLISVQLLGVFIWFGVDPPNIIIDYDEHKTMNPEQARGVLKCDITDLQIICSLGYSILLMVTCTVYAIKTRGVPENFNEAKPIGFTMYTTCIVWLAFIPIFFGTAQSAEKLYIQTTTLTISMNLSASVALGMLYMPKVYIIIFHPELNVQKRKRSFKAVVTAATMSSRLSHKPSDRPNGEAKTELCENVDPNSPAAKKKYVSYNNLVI
Method: (§1) The ability of each Gαi-coupled mGlu or mGluR-CaR chimeric receptors to function was determined in Xenopus oocytes, with co-injection of the G-protein inward rectifying potassium channel subunits, GIRK 1 and GIRK4 (Kubo et al 1993 Nature 364: 802). Individual oocytes were injected with a mixture containing 5 ng receptor, 1.5 ng GIRK1 and 1.5 ng GIRK4. […] Further details can be found in Saugstad, et al., J. Neurosci. 1996 16:5979-5985. Application of glutamate evoked inward potassium currents in oocytes expressing both the chimeric receptors and the potassium channels, but not in oocytes expressing only the receptor or only the channel subunits.

CaSPhmGluR3(27-33) = biological target: T4, CaSPhmGluR3(27-33) (Homo sapiens, UniProt Q14832); test: as above; format: cell-based; settings: 100 uM L-glutamate; Xenopus oocytes; FIG. 5
T4 construct: CaR signal peptide (first 27 amino acids of CaR) (N); expressed in transfected cells; host or cells: Xenopus laevis oocytes injected with RNA (with GIRK1 and GIRK4 RNA)
T4 sequence (Q14832 with tags, fused parts or gaps): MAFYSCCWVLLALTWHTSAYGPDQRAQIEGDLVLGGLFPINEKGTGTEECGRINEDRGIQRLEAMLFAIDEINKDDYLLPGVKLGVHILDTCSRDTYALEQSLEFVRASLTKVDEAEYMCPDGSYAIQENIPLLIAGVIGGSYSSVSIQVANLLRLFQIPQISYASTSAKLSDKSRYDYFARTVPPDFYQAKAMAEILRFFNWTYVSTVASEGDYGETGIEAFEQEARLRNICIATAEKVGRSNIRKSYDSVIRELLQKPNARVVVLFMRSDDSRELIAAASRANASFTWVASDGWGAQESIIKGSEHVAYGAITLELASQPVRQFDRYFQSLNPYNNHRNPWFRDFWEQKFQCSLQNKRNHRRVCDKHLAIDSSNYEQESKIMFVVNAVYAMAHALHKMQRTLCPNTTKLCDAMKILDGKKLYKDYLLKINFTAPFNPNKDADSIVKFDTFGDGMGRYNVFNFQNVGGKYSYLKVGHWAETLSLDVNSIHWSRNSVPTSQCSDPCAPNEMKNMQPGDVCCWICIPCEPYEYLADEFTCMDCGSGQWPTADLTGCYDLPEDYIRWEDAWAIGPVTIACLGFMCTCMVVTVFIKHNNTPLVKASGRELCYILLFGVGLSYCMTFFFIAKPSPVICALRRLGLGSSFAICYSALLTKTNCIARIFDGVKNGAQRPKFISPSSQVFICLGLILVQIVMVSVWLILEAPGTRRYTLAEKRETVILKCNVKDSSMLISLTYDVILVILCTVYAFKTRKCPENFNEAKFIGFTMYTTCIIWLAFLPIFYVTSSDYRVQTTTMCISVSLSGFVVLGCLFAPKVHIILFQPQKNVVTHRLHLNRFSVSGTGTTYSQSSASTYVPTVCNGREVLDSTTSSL
Method: as §1

CaSPhmGluR6(27-35) = biological target: T5, CaSPhmGluR6(27-35) (Homo sapiens, UniProt O15303, Q59P); test: as above; format: cell-based; settings: 100 uM L-glutamate; Xenopus oocytes; FIG. 7
T5 construct: CaR signal peptide (first 27 amino acids of CaR) (N); expressed in transfected cells; host or cells: Xenopus laevis oocytes injected with RNA
Method: as §1

human CaR = biological target: T6, human CaR (Homo sapiens, UniProt P41180, R990G); test: PLC-coupled oocyte assay; format: cell-based; settings: Xenopus oocytes; FIG. 10B
T6 construct: expressed in transfected cells; host or cells: Xenopus laevis oocytes injected with human CaR RNA (plasmid phPCaR4.0)
T6 sequence (P41180 20-1078 R990G): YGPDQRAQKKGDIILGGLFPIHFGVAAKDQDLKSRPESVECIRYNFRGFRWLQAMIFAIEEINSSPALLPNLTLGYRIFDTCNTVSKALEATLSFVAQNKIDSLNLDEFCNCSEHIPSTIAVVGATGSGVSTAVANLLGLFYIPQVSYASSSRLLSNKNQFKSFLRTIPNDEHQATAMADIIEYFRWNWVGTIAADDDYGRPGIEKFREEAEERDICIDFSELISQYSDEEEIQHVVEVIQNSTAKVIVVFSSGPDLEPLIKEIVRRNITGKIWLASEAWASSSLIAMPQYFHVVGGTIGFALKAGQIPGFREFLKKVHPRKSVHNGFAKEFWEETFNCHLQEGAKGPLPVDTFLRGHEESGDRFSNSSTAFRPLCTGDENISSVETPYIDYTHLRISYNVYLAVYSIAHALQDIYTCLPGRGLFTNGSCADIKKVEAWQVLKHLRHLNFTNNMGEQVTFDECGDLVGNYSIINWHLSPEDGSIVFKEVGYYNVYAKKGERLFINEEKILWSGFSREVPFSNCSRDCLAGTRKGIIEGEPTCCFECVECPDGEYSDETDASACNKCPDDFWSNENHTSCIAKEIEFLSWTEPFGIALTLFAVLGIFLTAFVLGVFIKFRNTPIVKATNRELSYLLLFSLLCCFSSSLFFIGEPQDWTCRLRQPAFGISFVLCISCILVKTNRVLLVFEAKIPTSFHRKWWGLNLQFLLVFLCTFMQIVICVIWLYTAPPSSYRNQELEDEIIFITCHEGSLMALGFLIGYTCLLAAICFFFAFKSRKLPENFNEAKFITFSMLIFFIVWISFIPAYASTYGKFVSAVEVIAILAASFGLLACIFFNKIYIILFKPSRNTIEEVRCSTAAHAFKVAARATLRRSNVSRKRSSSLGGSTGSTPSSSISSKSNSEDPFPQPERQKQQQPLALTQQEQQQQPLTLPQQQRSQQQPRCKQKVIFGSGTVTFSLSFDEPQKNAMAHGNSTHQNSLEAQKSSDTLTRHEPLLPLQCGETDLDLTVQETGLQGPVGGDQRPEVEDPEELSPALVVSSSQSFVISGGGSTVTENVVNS

Sequence of rat mGluR1 (P23385 19-1199): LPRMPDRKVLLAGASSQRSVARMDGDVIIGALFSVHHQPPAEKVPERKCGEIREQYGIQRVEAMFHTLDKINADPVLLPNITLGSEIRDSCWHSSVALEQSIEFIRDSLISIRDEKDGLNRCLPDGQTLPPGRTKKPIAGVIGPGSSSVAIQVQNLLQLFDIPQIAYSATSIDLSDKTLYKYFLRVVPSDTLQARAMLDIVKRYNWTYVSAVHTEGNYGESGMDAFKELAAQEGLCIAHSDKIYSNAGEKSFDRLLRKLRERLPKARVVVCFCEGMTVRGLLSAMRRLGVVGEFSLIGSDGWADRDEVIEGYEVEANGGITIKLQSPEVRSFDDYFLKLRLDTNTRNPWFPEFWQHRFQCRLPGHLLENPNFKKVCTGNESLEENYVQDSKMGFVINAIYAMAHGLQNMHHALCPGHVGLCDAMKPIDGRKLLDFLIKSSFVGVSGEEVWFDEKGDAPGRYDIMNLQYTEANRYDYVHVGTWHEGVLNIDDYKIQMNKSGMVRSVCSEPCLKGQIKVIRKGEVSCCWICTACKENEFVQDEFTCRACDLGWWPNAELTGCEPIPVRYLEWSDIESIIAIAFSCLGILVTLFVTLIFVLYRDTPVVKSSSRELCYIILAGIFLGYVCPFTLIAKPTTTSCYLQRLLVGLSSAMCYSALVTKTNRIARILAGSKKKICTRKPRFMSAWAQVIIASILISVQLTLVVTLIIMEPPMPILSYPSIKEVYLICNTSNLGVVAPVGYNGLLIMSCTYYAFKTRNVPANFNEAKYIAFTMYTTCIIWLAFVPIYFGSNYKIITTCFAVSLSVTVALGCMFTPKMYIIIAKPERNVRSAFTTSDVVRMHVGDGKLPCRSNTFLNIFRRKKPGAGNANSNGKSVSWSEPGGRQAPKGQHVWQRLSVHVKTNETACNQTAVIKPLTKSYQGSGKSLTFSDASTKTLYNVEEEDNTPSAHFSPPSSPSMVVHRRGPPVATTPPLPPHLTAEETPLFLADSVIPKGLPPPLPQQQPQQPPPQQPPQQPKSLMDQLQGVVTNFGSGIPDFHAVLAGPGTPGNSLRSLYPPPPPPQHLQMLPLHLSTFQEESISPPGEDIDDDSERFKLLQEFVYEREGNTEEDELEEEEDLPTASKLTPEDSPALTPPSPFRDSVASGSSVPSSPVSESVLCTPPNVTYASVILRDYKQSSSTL

N[C@@H](Cn1oc(=O)[nH]c1=O)C(=O)O [quisqualate]
receptor response (Cl- currents on release of intracellular Ca2+) (pmGluR1/CaR chimera): respond comparably
receptor response (Cl- currents on release of intracellular Ca2+) (rat mGluR1): respond comparably

N[C@@H](CCC(=O)O)C(=O)O [L-glutamate]
activation of the receptor (CaSPhmGluR2(27-19)): Activation of the receptor
activation of the chimeric receptor (CaSPhmGluR5(27-22)): Activation of the chimeric receptor
activation of the chimeric receptor (CaSPhmGluR7(27-45)): robust activation
activation of the chimeric receptor (CaSPhmGluR3(27-33)): activation of the chimeric receptor was seen
activation of the chimeric receptor (CaSPhmGluR6(27-35)): Activation of the chimeric receptor
Cl- current in oocytes injected with human CaR RNA (human CaR): elicits oscillatory increases in Cl— current
